This series is described as follows: Waters ACQUITY UPLC BEH C18, 100 × 2.1 mm, 1.7 µm, 40 °C, 0.3 to 0.4 mL/min, estimated dead time 0.63 min; A: water + 0.1% formic acid; B: methanol + 0.1% formic acid; gradient (min/%B) 0/0.5 0.1/0.5 10/80 10.1/99.5 12/99.5. The note with it: stereoisomer not certain.
With `CC1CCC2(NC1)OC1CC3C4CCC5CC(OC6OC(CO)C(OC7OC(CO)C(O)C(OC8OC(O)C(O)C(O)C8O)C7OCC(O)C(O)C(O)C(O)CO)C(O)C6O)CCC5(C)C4CCC3(C)C1C2C` (stereo not given), the LC retention time is 4.32 min. For the compound `CCCCCC(O)CC(=O)CCc1ccc(O)c(OC)c1` (stereo not given), the LC retention time is 7.45 min.

In the case of `COc1cc(C=CC(=O)O)cc(OC)c1O`, the LC retention time is 4.21 min. Then `COc1cc(CC(CO)C(CO)Cc2ccc(O)c(OC)c2)ccc1O` (stereo not given), with 4.76 min. Turning to `COC(=O)C1=COC(OC2OC(CO)C(O)C(O)C2O)C2C(CO)=CCC12` (stereo not given), the LC retention time is 3.42 min. Regarding `OCC=Cc1ccc(O)c(O)c1`, the LC retention time is 3.18 min. Turning to `O=C1CCC(C(=O)O)N1` (stereo not given), the LC retention time is 1.73 min. Under `COC1C(O)C(OC2C(OC3C(OC4CCC5(C)C(CCC6(C)C5CC=C5C7CC(C)(C)CC(O)C7(C)CCC56C)C4(C)CO)OC(C(=O)O)C(O)C3O)OC(C(=O)O)C(O)C2O)OC(CO)C1OC(C)=O` (stereo not given) stands 7.33 min; under `O=C(O)CCC(NCC1(O)OCC(O)C(O)C1O)C(=O)NC(Cc1ccccc1)C(=O)O` (stereo not given), 3.16 min. As for `C=CC1C(OC2OC(CO)C(O)C(O)C2O)OC=C(C(=O)OC)C1CC1NC(C(=O)O)Cc2c1[nH]c1ccccc21` (stereo not given), the LC retention time was 4.13 min. Then `CCC=CCC=CC=CC(O)CCCCCCCC(=O)O` (stereo not given), with 9.1 min; and `O=c1cc(-c2ccc(O)cc2)oc2c(C3OC(CO)C(O)C(O)C3O)c(O)c(C3OCC(O)C(O)C3O)c(O)c12` (stereo not given), with 3.41 min. For the compound `CC1=C2C(=O)C3C(CC=C4CC(OC5OC(CO)C(O)C(O)C5O)CCC43C)C2CCC12OC1CC(C)CNC1C2C` (stereo not given), the LC retention time is 4.01 min.

With `CC(CCC1(O)OC2CC3C4CC=C5CC(OC6OC(CO)C(O)C(OC7OC(CO)C(O)C(O)C7O)C6OC6OC(C)C(O)C(O)C6O)CCC5(C)C4CCC3(C)C2C1C)COC1OC(CO)C(O)C(O)C1O` (stereo not given), the LC retention time is 4.99 min. Then `COc1cc(C=CC(=O)NCCCCC(N)C(=O)O)ccc1O` (stereo not given), with 3.08 min; and `CC1OC(OCC2OC(Oc3c(-c4ccc(O)c(O)c4)oc4cc(OC5OC(CO)C(O)C(O)C5O)cc(O)c4c3=O)C(O)C(O)C2O)C(O)C(O)C1O` (stereo not given), with 3.39 min; and `CC(C)=CCCC(C)(OC1OC(CO)C(O)C(O)C1O)C1CCC2(C)C1C(O)CC1C3(C)CCC(O)C(C)(C)C3C(OC3OC(CO)C(O)C(O)C3OC3OC(C)C(O)C(O)C3O)CC12C` (stereo not given), with 4.79 min.

Consider `CC1OC(OC2C(CO)OC(OC3CCC4(C)C(=CC(O)C5C4CCC4(C)C5CC5OC6(CCC(C)(COC7OC(CO)C(O)C(O)C7O)O6)C(C)C54)C3)C(OC3OC(C)C(O)C(O)C3O)C2O)C(O)C(O)C1O` (stereo not given), for which the LC retention time is 4.5 min. In the case of `O=c1cc(-c2ccccc2)oc2ccccc12`, the LC retention time was 7.75 min. As to `CC1(C)CCC2(C(=O)OC3OC(CO)C(O)C(O)C3O)C(O)CC3(C)C(=CCC4C5(C)CCC(OC6OCC(O)C(OC7OC(CO)C(O)C(O)C7O)C6O)C(C)(C)C5CCC43C)C2C1` (stereo not given), the LC retention time was 6.06 min. `OCC1OC(Oc2cc3c(OC4OC(CO)C(O)C(O)C4O)cc(O)cc3[o+]c2-c2ccc(O)c(O)c2)C(O)C(O)C1O` (stereo not given): the LC retention time is 2.5 min.

For `CC1=NCCc2c1[nH]c1cc(O)ccc21`, the LC retention time is 3.06 min. Then `OCC1OC(Oc2cc(O)cc3[o+]c(-c4ccc(O)c(O)c4)c(OC4OC(CO)C(O)C(O)C4OC4OCC(O)C(O)C4O)cc23)C(O)C(O)C1O` (stereo not given), with 2.49 min.

As to `CC(C)=CCc1cc(-c2coc3cc(O)ccc3c2=O)ccc1O`, the LC retention time is 7.24 min. As for `CCC(C)C(NC(=O)Cc1c[nH]c2ccccc12)C(=O)O` (stereo not given), the LC retention time is 6.14 min.
